In patent publication US12606572B2, “Substituted heterocycles and uses thereof” (Kumquat Biosciences Inc., priority 2023, dated 2026):

Assays:
KRAS G12S = biological target: T1, KRAS G12S (Homo sapiens, UniProt P01116, G12S); test: HTRF assay, interaction of GST-tagged K-Ras with His-tagged hSOS1 (KRAS G12S); type: biochemical; settings: <500 nM, read-out: Inhibition of KRAS G12S (IC50)
T1 construct: made in house; host or cells: E. coli BL21 (DE3)
In short: (§1)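 GST-K-Ras (G12S or WT) with anti-GST-Eu donor mixed with His-hSOS1 and anti-6His-XL665 acceptor in ~5 mM HEPES pH 7.4, 150 mM NaCl, 1 mM DTT, 0.05% BSA, 0.0025% Igepal. After ~10 min or longer, HTRF 665/620 nm ratio read.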

KRAS WT = biological target: T2, KRAS WT (Homo sapiens, UniProt P01116); test: HTRF assay, interaction of GST-tagged K-Ras with His-tagged hSOS1 (KRAS wildtype); type: biochemical; settings: <500 nM, read-out: Inhibition of KRAS WT (IC50)
T2 construct: made in house; host or cells: E. coli BL21 (DE3)
In short: as §1

T1 sequence (P01116 1-188 isoform P01116-2 G12S): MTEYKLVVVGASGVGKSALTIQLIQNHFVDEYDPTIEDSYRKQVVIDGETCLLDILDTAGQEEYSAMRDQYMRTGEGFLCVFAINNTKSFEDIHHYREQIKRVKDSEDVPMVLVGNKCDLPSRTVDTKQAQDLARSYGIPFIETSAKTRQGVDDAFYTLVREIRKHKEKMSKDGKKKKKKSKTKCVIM
T2 sequence (P01116 1-188 isoform P01116-2): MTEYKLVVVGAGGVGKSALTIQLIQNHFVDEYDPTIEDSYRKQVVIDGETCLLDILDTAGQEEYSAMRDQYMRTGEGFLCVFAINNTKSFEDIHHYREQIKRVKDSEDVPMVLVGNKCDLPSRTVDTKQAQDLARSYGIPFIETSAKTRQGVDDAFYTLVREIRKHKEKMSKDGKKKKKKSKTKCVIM

For Cc1cn(C(=O)N2CC[C@@H](N3CCCc4nc(-c5ccc(F)c6sc(N)c(C#N)c56)c(F)c5nc(OC[C@@]67CCCN6C[C@H](F)C7)nc3c45)[C@H]2C)c(C)n1 [Compound 409, 2-amino-4-(10-((2R,3R)-1-(2,4-dimethyl-1H-imidazole-1-carbonyl)-2-methylpyrrolidin-3-yl)-4-fluoro-2-(((2R,7aS)-2-fluorotetrahydro-1H-pyrrolizin-7a (5H)-yl)methoxy)-7,8,9,10-tetrahydro-1,3,6,10-tetraazacyclohepta[de]naphthalen-5-yl)-7-fluorobenzo[b]thiophene-3-carbonitrile], the IC50 (KRAS G12S) was < 500 nM and the IC50 (KRAS WT) was < 500 nM.
With CC1([C@@H]2[C@H](CN3CCCOc4c(Cl)c(-c5ccc(F)c6sc(N)c(C#N)c56)c(F)c5nc(OC[C@@]67CCCN6C[C@H](F)C7)nc3c45)CN2C(=O)n2ccnc2)CC1 [Compound 494, 4-(4-(((2S,3R)-1-(1H-imidazole-1-carbonyl)-2-(1-methylcyclopropyl)azetidin-3-yl)methyl)-9-chloro-11-fluoro-2-(((2R,7aS)-2-fluorotetrahydro-1H-pyrrolizin-7a(5H)-yl)methoxy)-4,5,6,7-tetrahydro-[1,5]oxazocino [4,3,2-de]quinazolin-10-yl)-2-amino-7-fluorobenzo[b] thiophene-3-carbonitrile] the IC50 (KRAS G12S) was < 500 nM and the IC50 (KRAS WT) was < 500 nM.
In the case of Cc1cn(C(=O)N2CC[C@@H](N3C[C@H](C)Oc4c(Cl)c(-c5ccc(F)c6sc(N)c(C#N)c56)c(F)c5nc(OC[C@@]67CCCN6C[C@H](F)C7)nc3c45)[C@H]2C)c(C)n1 [Compound 464, 2-amino-4-((6S)-8-chloro-4-((2R,3R)-1-(2,4-dimethyl-1H-imidazole-1-carbonyl)-2-methylpyrrolidin-3-yl)-10-fluoro-2-(((2R,7aS)-2-fluorotetrahydro-1H-pyrrolizin-7a(5H)-yl)methoxy)-6-methyl-5,6-dihydro-4H-[1,4]oxazepino[5,6,7-de]quinazolin-9-yl)-7-fluorobenzo[b] thiophene-3-carbonitrile], the IC50 (KRAS G12S) is reported as < 500 nM and the IC50 (KRAS WT) is reported as < 500 nM.
CC1C(CN2c3nc(OC[C@@]45CCCN4C[C@H](F)C5)nc4c(F)c(-c5ccc(F)c6sc(N)c(C#N)c56)c(Cl)c(c34)OC[C@@H]2[C@H](C)O)CCN1C(=O)n1ccnc1 (stereo partly drawn) [Compound 457, 4-((5R)-4-((1-(1H-imidazole-1-carbonyl)-2-methylpyrrolidin-3-yl)methyl)-8-chloro-10-fluoro-2-(((2R,7aS)-2-fluorotetrahydro-1H-pyrrolizin-7a(5H)-yl)methoxy)-5-((S)-1-hydroxyethyl)-5,6-dihydro-4H-[1,4]oxazepino[5,6,7-de]quinazolin-9-yl)-2-amino-7-fluorobenzo[b]thiophene-3-carbonitrile] was tested, and the IC50 (KRAS G12S) was < 500 nM and the IC50 (KRAS WT) was < 500 nM.
In the case of C[C@H](O)[C@H]1COc2c(Cl)c(-c3ccc(F)c4sc(N)c(C#N)c34)c(F)c3nc(OC[C@@]45CCCN4C[C@H](F)C5)nc(c23)N1CC1CCCN1C(=O)n1ccnc1 (stereo partly drawn) [Compound 495, 4-((5R)-4-((1-(1H-imidazole-1-carbonyl)pyrrolidin-2-yl)methyl)-8-chloro-10-fluoro-2-(((2R,7aS)-2-fluorotetrahydro-1H-pyrrolizin-7a(5H)-yl)methoxy)-5-((S)-1-hydroxyethyl)-5,6-dihydro-4H-[1,4]oxazepino [5,6,7-de]quinazolin-9-yl)-2-amino-7-fluorobenzo[b] thiophene-3-carbonitrile], the IC50 (KRAS G12S) is reported as < 500 nM and the IC50 (KRAS WT) is reported as < 500 nM.
C[C@H](O)[C@H]1COc2c(Cl)c(-c3ccc(F)c4sc(N)c(C#N)c34)c(F)c3nc(OC[C@@]45CCCN4C[C@H](F)C5)nc(c23)N1C1CC(N(C)C(=O)n2ccnc2)C1 (stereo partly drawn) [Compound 428, N-(3-((5R)-9-(2-amino-3-cyano-7-fluorobenzo[b]thiophen-4-yl)-8-chloro-10-fluoro-2-(((2R,7aS)-2-fluorotetrahydro-1H-pyrrolizin-7a(5H)-yl)methoxy)-5-((S)-1-hydroxyethyl)-5,6-dihydro-4H-[1,4]oxazepino [5,6,7-de]quinazolin-4-yl)cyclobutyl)-N-methyl-1H-imidazole-1-carboxamide] was tested, and the IC50 (KRAS G12S) was < 500 nM and the IC50 (KRAS WT) was < 500 nM.
In the case of CN(C)C/C=C/C(=O)N1CC(CN2CCOc3c(Cl)c(-c4ccc(F)c5sc(N)c(C#N)c45)c(F)c4nc(OC[C@@]56CCCN5C[C@H](F)C6)nc2c34)C1 [Compound 469, 2-amino-4-(8-chloro-4-((1-((E)-4-(dimethylamino)but-2-enoyl)azetidin-3-yl)methyl)-10-fluoro-2-(((2R, 7aS)-2-fluorotetrahydro-1H-pyrrolizin-7a(5H)-yl)methoxy)-5,6-dihydro-4H-[1,4]oxazepino[5,6,7-de]quinazolin-9-yl)-7-fluorobenzo [b]thiophene-3-carbonitrile], the IC50 (KRAS G12S) is reported as < 500 nM and the IC50 (KRAS WT) is reported as < 500 nM.
In the case of C[C@H](O)[C@H]1COc2c(Cl)c(-c3ccc(F)c4sc(N)c(C#N)c34)c(F)c3nc(OC[C@@]45CCCN4C[C@H](F)C5)nc(c23)N1CCN(C)C(=O)n1ccnc1 [Compound 449, N-(2-((5R)-9-(2-amino-3-cyano-7-fluorobenzo[b]thiophen-4-yl)-8-chloro-10-fluoro-2-(((2R,7aS)-2-fluorotetrahydro-1H-pyrrolizin-7a(5H)-yl)methoxy)-5-((S)-1-hydroxyethyl)-5,6-dihydro-4H-[1,4]oxazepino [5,6,7-de]quinazolin-4-yl)ethyl)-N-methyl-1H-imidazole-1-carboxamide], the IC50 (KRAS G12S) is reported as < 500 nM and the IC50 (KRAS WT) is reported as < 500 nM.
With N#Cc1c(N)sc2c(F)ccc(-c3c(Cl)c4c5c(nc(OC[C@@]67CCCN6C[C@H](F)C7)nc5c3F)N(CC3CN(C(=O)/C=C/C(F)F)C3)CCO4)c12 [Compound 423, 2-amino-4-(8-chloro-4-((1-((E)-4,4-difluorobut-2-enoyl)azetidin-3-yl)methyl)-10-fluoro-2-(((2R,7aS)-2-fluorotetrahydro-1H-pyrrolizin-7a (5H)-yl)methoxy)-5,6-dihydro-4H-[1,4]oxazepino[5,6,7-de]quinazolin-9-yl)-7-fluorobenzo[b]thiophene-3-carbonitrile] the IC50 (KRAS G12S) was < 500 nM and the IC50 (KRAS WT) was < 500 nM.
In the case of C[C@H](O)[C@H]1COc2c(Cl)c(-c3ccc(F)c4sc(N)c(C#N)c34)c(F)c3nc(OC[C@@]45CCCN4C[C@H](F)C5)nc(c23)N1C[C@H]1CN(C(=O)n2ccnc2)[C@@H]1C (single isomer, unassigned) [Compound 402], the IC50 (KRAS G12S) is reported as < 500 nM and the IC50 (KRAS WT) is reported as < 500 nM.
CC(C)[C@@H]1[C@H](CN2CCOc3c(Cl)c(-c4ccc(F)c5sc(N)c(C#N)c45)c(F)c4nc(OC[C@@]56CCCN5C[C@H](F)C6)nc2c34)CN1C(=O)n1cnc(F)n1 [Compound 471, 2-amino-4-(8-chloro-10-fluoro-4-(((2R,3R)-1-(3-fluoro-1H-1,2,4-triazole-1-carbonyl)-2-isopropylazetidin-3-yl)methyl)-2-(((2R,7aS)-2-fluorotetrahydro-1H-pyrrolizin-7a (5H)-yl)methoxy)-5,6-dihydro-4H-[1,4]oxazepino[5,6,7-de]quinazolin-9-yl)-7-fluorobenzo[b]thiophene-3-carbonitrile] was tested, and the IC50 (KRAS G12S) was < 500 nM and the IC50 (KRAS WT) was < 500 nM.
With CC([C@H]1CCN1C(=O)n1cncn1)N1CCOc2c(Cl)c(-c3ccc(F)c4sc(N)c(C#N)c34)c(F)c3nc(OC[C@@]45CCCN4C[C@H](F)C5)nc1c23 (stereo partly drawn) [Compound 445, 4-(4-(1-((R)-1-(1H-1,2,4-triazole-1-carbonyl)azetidin-2-yl)ethyl)-8-chloro-10-fluoro-2-(((2R,7aS)-2-fluorotetrahydro-1H-pyrrolizin-7a (5H)-yl)methoxy)-5,6-dihydro-4H-[1,4]oxazepino[5,6,7-de]quinazolin-9-yl)-2-amino-7-fluorobenzo[b]thiophene-3-carbonitrile] the IC50 (KRAS G12S) was < 500 nM and the IC50 (KRAS WT) was < 500 nM.
C[C@@H]1[C@H](N2c3nc(OC[C@@]45CCCN4C[C@H](F)C5)nc4c(F)c(-c5ccc(F)c6sc(N)c(C#N)c56)c(Cl)c(c34)OC[C@@H]2C)CCN1C(=O)n1ccnc1 (single isomer, unassigned) [Compound 432] was tested, and the IC50 (KRAS G12S) was < 500 nM and the IC50 (KRAS WT) was < 500 nM.
In the case of CC(C)[C@@H]1[C@H](CN2CCOc3c(Cl)c(-c4ccc(F)c5sc(N)c(C#N)c45)c(F)c4nc(OC[C@@]56CCCN5C[C@H](F)C6)nc2c34)CN1C(=O)n1cnc(Cl)n1 [Compound 493, 2-amino-4-(8-chloro-4-(((2R,3R)-1-(3-chloro-1H-1,2,4-triazole-1-carbonyl)-2-isopropylazetidin-3-yl)methyl)-10-fluoro-2-(((2R,7aS)-2-fluorotetrahydro-1H-pyrrolizin-7a (5H)-yl)methoxy)-5,6-dihydro-4H-[1,4]oxazepino[5,6,7-de]quinazolin-9-yl)-7-fluorobenzo[b]thiophene-3-carbonitrile], the IC50 (KRAS G12S) is reported as < 500 nM and the IC50 (KRAS WT) is reported as < 500 nM.
C[C@H](O)[C@H]1COc2c(Cl)c(-c3ccc(F)c4sc(N)c(C#N)c34)c(F)c3nc(OC[C@@]45CCCN4C[C@H](F)C5)nc(c23)N1C[C@@H]1CN(C(=O)n2ccnc2)[C@@H]1C (single isomer, unassigned) [Compound 446] was tested, and the IC50 (KRAS G12S) was < 500 nM and the IC50 (KRAS WT) was < 500 nM.
For C[C@@H]1CCOc2c(Cl)c(-c3ccc(F)c4sc(N)c(C#N)c34)c(F)c3nc(OC[C@@]45CCCN4C[C@H](F)C5)nc(c23)N1CC1CCN(C(=O)n2ccnc2)C1 (stereo partly drawn) [Compound 417, 4-((5R)-4-((1-(1H-imidazole-1-carbonyl)pyrrolidin-3-yl)methyl)-9-chloro-11-fluoro-2-(((2R, 7aS)-2-fluorotetrahydro-1H-pyrrolizin-7a(5H)-yl)methoxy)-5-methyl-4,5,6,7-tetrahydro-[1,5]oxazocino [4,3,2-de]quinazolin-10-yl)-2-amino-7-fluorobenzo [b]thiophene-3-carbonitrile], the IC50 (KRAS G12S) was < 500 nM and the IC50 (KRAS WT) was < 500 nM.
